From PubChem BioAssay (NCI)
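1) Cells in 96-well plates. 2) Compound, 48 h, 5 concentrations. 3) Linear interpolation between surrounding doses. 4) Unreached endpoint = highest concentration. GI50: concentration for 50% inhibition of growth. TGI denotes the concentration required for complete inhibition of growth.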

Key:
Experiment in all cases: NCI-60 cell line screen, 48 h
M14 melanoma = system: M14 melanoma
NCI-H460 lung = system: NCI-H460 lung
MDA-MB-231 breast = system: MDA-MB-231 breast
CAKI-1 renal = system: CAKI-1 renal
SF-539 CNS = system: SF-539 CNS
786-0 renal = system: 786-0 renal
TK-10 renal = system: TK-10 renal
SK-OV-3 ovarian = system: SK-OV-3 ovarian
A549 NSCLC = system: A549 NSCLC

| Structure (SMILES) | TGI (M14 melanoma) [µM] | TGI (NCI-H460 lung) [µM] | TGI (MDA-MB-231 breast) [µM] | TGI (CAKI-1 renal) [µM] | TGI (SF-539 CNS) [µM] | TGI (786-0 renal) [µM] | TGI (TK-10 renal) [µM] | TGI (SK-OV-3 ovarian) [µM] | TGI (A549 NSCLC) [µM] | GI50 (M14 melanoma) [µM] | GI50 (MDA-MB-231 breast) [µM] | GI50 (TK-10 renal) [µM] |
| --- | --- | --- | --- | --- | --- | --- | --- | --- | --- | --- | --- | --- |
| CC(NNC(=O)c1ccncc1)c1cccc(C(F)(F)F)c1 (stereo not given) | > 100 | > 100 | > 100 | > 100 | > 100 | > 100 | > 100 | > 100 | > 100 | – | – | – |
| CCOC(=O)c1nc2cc(Cl)ccc2[nH]c1=O | > 100 | > 100 | > 100 | > 100 | > 100 | > 100 | > 100 | > 100 | > 100 | – | – | – |
| COc1ccc(C2=NNC(=O)c3ccccc3N2c2nc(-c3cccs3)nc3cc(OC)c(OC)cc23)cc1 | 20.2 | > 100 | 13.5 | 44.7 | 8.56 | 12.1 | 21 | > 100 | > 100 | – | – | – |
| CCNC(=S)NNC(=O)c1ccccc1Nc1ccccc1C(=O)NNC(=S)NCC | > 100 | > 100 | > 100 | – | – | > 100 | > 100 | > 100 | > 100 | – | – | – |
| O=c1c2c3c(sc2nc2n1NC=NN2)CCCC3 | > 57 | 38.3 | 19.1 | 33.8 | 36.9 | 31.9 | > 56 | > 65.5 | > 100 | – | – | – |
| CNC(=O)CNC(=O)N(C[C@@H]1CCCN1C(=O)[C@H](CC(C)C)NC(=O)OC(C)(C)C)C(C)C | > 100 | > 100 | > 100 | > 100 | – | > 100 | – | > 100 | > 100 | – | – | – |
| Nc1ccn(C2CCC(COP(=O)(O)OCC(O)COP(=O)(O)OCC3OC(n4cc(F)c(=O)[nH]c4=O)CC3O)O2)c(=O)n1 (stereo not given) | > 100 | > 100 | > 100 | > 100 | > 100 | > 100 | > 100 | > 100 | > 100 | – | – | – |
| NC1=Nc2ccccc2Sc2cccc(F)c21 | > 100 | > 100 | > 100 | > 100 | > 100 | > 100 | > 100 | > 100 | > 100 | – | – | – |
| Cc1ccnc(Nc2[nH]c(C(=O)c3ccc(Cl)cc3)c(N)c2C(=S)Nc2ccccc2)c1 | 31.9 | 27.3 | 31.6 | > 100 | 26.6 | 34.8 | 69.2 | 35 | 53 | – | – | – |
| COC(=O)c1c2c(cc3c1CC1(Cc4ccccc4C1)C3)CCC2 | – | > 100 | 44.9 | 78.2 | > 100 | > 100 | > 100 | > 100 | > 100 | – | – | – |
| O=C1CN(c2cccc(C(F)(F)F)c2)C(=O)CN1CCN1CC(=O)N(c2cccc(C(F)(F)F)c2)CC1=O | > 100 | > 100 | > 100 | – | > 100 | > 100 | > 100 | > 100 | > 100 | – | – | – |
| Cn1c(=O)c2[nH]c(SC/C(=N/O)c3ccc(Br)cc3)nc2n(C)c1=O | > 100 | – | 4.38 | – | – | – | 3.41 | – | – | 45.5 | 2.14 | 1.92 |
| C=C1CCOC2(C(O)C(C)(O)CO)NC(=O)C1(O)NC2=O (stereo not given) | > 100 | > 100 | > 100 | > 100 | > 100 | > 100 | > 100 | > 100 | > 100 | – | – | – |
| Cc1nc2ccc(NC3OCC(O)C(O)C3O)cc2c(=O)n1-c1ccccc1 (stereo not given) | – | > 100 | > 100 | > 100 | – | > 100 | > 100 | – | – | – | – | – |
| C=CCOC(=O)Cn1ccc(=O)[nH]c1=O | > 100 | > 100 | > 100 | > 100 | > 100 | > 100 | > 100 | > 100 | > 100 | – | – | – |
| CN(C)CC1CCC/C(=C\c2ccc(OC(=O)/C=C/c3ccc(Cl)cc3)cc2)C1=O (stereo not given) | 20 | 18.1 | 21 | 5.12 | 5.79 | 3.05 | 4.73 | 50 | 21.6 | – | – | – |
| O=C(NC1C/C(=N/O)c2c(Br)sc(Br)c21)C(F)(F)F (stereo not given) | > 100 | 97.2 | 30.9 | 58 | 38.9 | 40.4 | > 100 | > 100 | 96.9 | – | – | – |
| CSc1ncc2c(n1)-c1ccccc1OC2 | > 100 | > 100 | > 100 | 84.7 | > 100 | > 100 | > 100 | > 100 | > 100 | – | – | – |
| O=C(O)c1nn(-c2ccccc2)nc1-c1nn(-c2ccccc2)nc1C(=O)O | > 100 | > 100 | > 100 | > 100 | > 100 | > 100 | > 100 | > 100 | > 100 | – | – | – |
| COc1ccc(Nc2nc(N)c(C(=O)c3ccc(Cl)cc3)s2)cc1 | > 64.4 | 4.62 | 6.13 | 13.4 | 0.18 | 11.2 | > 46.3 | 20.4 | 22.3 | – | – | – |
| CCCN(CCC)C(=O)c1c(N2CCN(C)CC2)c2cccnc2n2c(C)cnc12 | > 100 | > 100 | > 100 | > 100 | > 100 | > 100 | > 100 | – | > 100 | – | – | – |
| COc1cc(S(=O)(=O)Nc2ccc(-c3csc(N4C(=O)CSC4c4ccccc4O)n3)cc2)ccc1Cl (stereo not given) | > 100 | 52.8 | – | > 100 | > 100 | > 100 | – | > 100 | > 100 | – | – | – |
| CC(=O)NC(C)(C)C1CCC(C)CC1 (stereo not given) | > 100 | > 100 | > 100 | > 100 | > 100 | > 100 | > 100 | > 100 | > 100 | – | – | – |
| COc1ccc(N2C(=O)/C(=C/c3ccc(N(CCC#N)CCC#N)cc3)N=C2c2ccccc2)cc1 | > 100 | > 100 | > 100 | > 100 | > 100 | > 100 | > 100 | > 100 | > 100 | – | – | – |
